Where no end group is shown, it is not given here. red fluorescent dye = not defined here
Experiments:
PAK3 = PAK3 (Homo sapiens, UniProt O75914); assay: In vitro kinase assay PAK3; assay type: biochemical; conditions: ten times higher concentration than 0.1 μM
Protocol: As a specific substrate, the phosphorylation level of GSK-3[…] at Ser-9 was also evaluated. […] The decrease was specific to the AKT phosphorylation site on GSK-3[…] at Ser-9, since a change in the phosphorylation level of GSK-3[…] at Tyr-216 or GSK-3[…] at Tyr-279 was not observed. Moreover, the in vivo reduction of the phosphorylation of AKT substrates was more obvious at the injection site, since a significant change in the phosphorylation of AKT substrates in the frontal cortex or cerebellum between the two hemispheres was not observed. […] To test the specificity/selectivity of ZaTa as the inhibitor of AKT1 versus the other major kinases, a series of in vitro kinase assays was performed at IC50 for AKT1 and at ten times higher concentrations. A panel of the following 32 kinases was first tested in vitro using the active form of each kinase and a specific substrate: AKT2, AKT3, PKA, PKC[…], PKC, PI3K[…], PI3K[…], PI3K, SGK, PAK2, PAK3, SAPK2/p38, Abl, CaMKII, CDK1/cyclinB, CDK5/p35, CK1, CK2, CSK, GSK3[…], GSK3[…], JNK1[…]1, MAPK1, p70S6K, PDGFR[…], PDGFR[…], PDK1, PKG1[…], TrkB, JAK2, JAK3, and Syk. […] However, at ten times higher concentration, ZaTa inhibited AKT2 (63%), PI3K[…] (72%), p70S6K (64%), SGK (73%), PAK3 (83%), JAK3 (79%), TrkB (84%), and Abl (42%). […]

olfactory bulb cells = assay: In vivo TUNEL in olfactory bulb after repeated intranasal delivery; design: species or system C57BL/6 mice; conditions: repeated intranasal treatment for three days
From the text: To confirm the apoptotic inducing effect of ZaTa in vivo, ZaTa was delivered to the mouse brain via the nasal cavity, a minimally invasive procedure compared to the stereotactic surgery. Intranasal delivery of compounds into the brain is an efficient and effective way for local delivery of compounds, without the need for passing the blood brain barriers, the major obstacle for studying the effect of different inhibitors/activators in CNS (Vyas, et al. (2005) Curr. Drug Deliv. 2:165-175; Hrafnkelsdottir, et al. (2005) Biol. Pharm. Bull. 28:1038-1042). […] This was visualized by double labeling of the brain sections with fluorescent TUNEL and a nuclear marker.
Depending on the intended use, a pharmaceutical composition of the invention can be administered by any suitable means, including parenteral injection (such as intraperitoneal, subcutaneous, intratumoral or intramuscular injection), orally or by topical application (e.g., transdermal or via a mucosal surface). By pharmaceutically acceptable formulation is meant, a composition or formulation that allows for the effective distribution of the nucleic acid molecules of the instant invention in the physical location most suitable for their desired activity. […]

Sequence of PAK3 (O75914 whole entry, species assumed): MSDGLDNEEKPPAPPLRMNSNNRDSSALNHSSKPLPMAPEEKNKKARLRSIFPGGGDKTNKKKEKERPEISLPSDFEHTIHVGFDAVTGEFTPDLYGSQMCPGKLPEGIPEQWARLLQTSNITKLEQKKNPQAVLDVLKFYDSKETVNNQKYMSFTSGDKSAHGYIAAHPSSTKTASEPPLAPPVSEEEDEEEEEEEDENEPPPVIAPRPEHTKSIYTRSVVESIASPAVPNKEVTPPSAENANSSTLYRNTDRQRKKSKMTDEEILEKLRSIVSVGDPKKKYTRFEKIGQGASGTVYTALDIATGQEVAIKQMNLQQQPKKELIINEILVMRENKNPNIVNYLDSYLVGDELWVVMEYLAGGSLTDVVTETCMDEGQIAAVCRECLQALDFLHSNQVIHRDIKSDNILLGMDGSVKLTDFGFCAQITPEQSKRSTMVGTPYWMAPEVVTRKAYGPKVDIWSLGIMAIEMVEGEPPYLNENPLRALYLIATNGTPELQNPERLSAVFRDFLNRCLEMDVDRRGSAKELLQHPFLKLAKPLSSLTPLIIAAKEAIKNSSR

| Substance | inhibition of PAK3 (PAK3) | number of apoptotic cells in olfactory bulb (olfactory bulb cells) |
| --- | --- | --- |
| AKRVKGRTWTLCGTPEY [ZaTa] | 83% |  |
| labeled ZaTa: ZaTa peptide labeled with a red fluorescent dye at its N-terminus ({red fluorescent dye}-AKRVKGRTWTLCGTPEY; reading uncertain) |  | significantly increased |
